Measurements: publication PMC6208348 (Nature Communications, 2018)

Legend:
L. longbeachae LeSH = molecular target: T1, L. longbeachae LeSH (Legionella longbeachae, UniProt D3HJY4)
T1 construct: gene LLO_2327

[1] = molecular target: T2, L. longbeachae LUSH SH2 domain (Legionella longbeachae, UniProt D3HPG5); format: binding
T2 construct: gene LLO_0448
T2 sequence (D3HPG5 3-171 limits assumed): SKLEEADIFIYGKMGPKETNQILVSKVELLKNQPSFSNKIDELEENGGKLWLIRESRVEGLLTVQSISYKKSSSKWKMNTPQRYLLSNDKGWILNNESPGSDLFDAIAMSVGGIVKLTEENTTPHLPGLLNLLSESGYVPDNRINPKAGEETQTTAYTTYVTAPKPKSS

T1 sequence (D3HJY4 1-167 limits assumed): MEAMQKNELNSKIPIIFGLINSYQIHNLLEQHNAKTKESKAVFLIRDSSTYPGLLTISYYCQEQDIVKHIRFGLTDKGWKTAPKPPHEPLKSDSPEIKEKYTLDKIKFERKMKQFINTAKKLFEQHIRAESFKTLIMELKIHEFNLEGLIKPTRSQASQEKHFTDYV

N[C@@H](Cc1ccc(OP(=O)(O)O)cc1)C(=O)O [phosphotyrosine]
X-ray crystal structure of complex (L. longbeachae LeSH): crystal structures of LeSH in complex with three different pTyr ligands, including the phosphotyrosine itself

N[C@@H](Cc1ccc(OP(=O)(O)O)cc1)C(=O)NCC(=O)O [pY-G dipeptide]
Kd [1]: 810 nM
